Two compounds from paper PMC9269301, “Phytochemical Analysis, Antioxidant, Antimicrobial, and Cytotoxic Activity of Different Extracts of Xanthoparmelia stenophylla Lichen from Stara Planina, Serbia” (Plants, 2022) can be followed below.

Converted amounts (≈) assume the structure as drawn. Like-named read-outs stand apart in the source and are kept apart here.

Test [1] has as its system S. aureus ATCC 6538. The test can be described thus: Microdilution with resazurin, antibacterial. The class given is cell-based, Staphylococcus aureus. The method, then: (§1) The tested methanol, acetone, and n-hexane extracts, as well as the component (usnic acid) of X. stenophylla, were dissolved in 10% dimethyl sulfoxide (DMSO) and then diluted into the nutrient liquid medium. DMSO was obtained from Acros Organics (Fair Lawn, NJ, USA). Resazurin was obtained from Alfa Aesar GmbH & Co. (KG, Karlsruhe, Germany).
(§2) The antimicrobial activity of the extracts and components was tested against 19 microorganisms. The experiment involved 15 strains of bacteria (i.e., 6 standard strains: Staphylococcus aureus ATCC 6538, Bacillus subtilis ATCC 6633, Proteus mirabilis ATCC 12453, Pseudomonas aeruginosa ATCC 27853, Klebsiella pneumoniae ATCC 70063, and Escherichia coli ATCC 25922; 9 isolates: Staphylococcus aureus, Escherichia coli, Salmonella enterica, Salmonella Typhimurium, Proteus mirabilis, Klebsiella pneumoniae, Pseudomonas aeruginosa, Bacillus subtilis, and Bacillus cereus). In addition, four fungal strains (i.e., two standard strains: Candida albicans ATCC 10231 and Aspergillus niger ATCC 16888; two isolates: Saccharomyces cerevisiae and Candida albicans) were tested. All isolates were a generous gift from the Institute of Public Health, Kragujevac. The other microorganisms were provided from the collection held by the Microbiology Laboratory Faculty of Science, University of Kragujevac.
(§3) The bacterial suspensions were prepared by the direct colony method. The turbidity of the initial suspension was adjusted using a densitometer (DEN-1, BioSan, Riga, Latvia). When adjusted to the turbidity of the 0.5 McFarland’s standard (Andrews, 2005) the bacteria suspension contained approximately 10^8 colony-forming units (CFU)/mL, and the suspension of yeast contained 10^6 CFU/mL; 1:100 dilutions of the initial suspension were additionally prepared in sterile 0.85% saline. The suspensions of fungal spores were prepared by gentle stripping of spores from slopes with growing mycelia. The resulting suspensions were 1:1000 diluted in sterile 0.85% saline.
(§4) Antimicrobial activity was tested by determining the minimum inhibitory concentrations (MICs) and minimum microbicidal concentrations (MBCs) using the microdilution plate method with resazurin [56]. The 96-well plates were prepared by dispensing 100 μL of Mueller–Hinton broth for bacteria and Sabouard broth for fungi into each well. A 10 μL aliquot from the stock solution of the tested extract or component was added to the first row of the plate. Then, two-fold serial dilutions were performed using a multichannel pipette. The obtained concentration range was from 10 to 0.08 mg/mL. The method is described in detail in [76].
(§5) Each test included growth control and sterility control.
(§6) Minimum microbicidal concentrations were determined by plating 10 μL of samples from wells where no indicator color change or no mycelia growth was recorded on a nutrient agar medium. At the end of the incubation period, the lowest concentration with no growth (no colony) was defined as the minimum microbicidal concentration.
(In general: Broth dilution looks for growth in wells or tubes with falling amounts of substance.)

For test [2], the system named is S. aureus (isolate). In words: Microdilution with resazurin, antibacterial. It counts as cell-based, Staphylococcus aureus. The method, then: as §1, §2, §3, §4, §5, §6
Test [3] deals with P. aeruginosa biofilm. The test can be described thus: Antibiofilm activity (biofilm formation, crystal violet). It counts as cell-based, Pseudomonas aeruginosa. The conditions noted are these: P. aeruginosa, 37 °C, 48 h. The protocol:
(§7) The ability of S. aureus ATCC 6538 and P. aeruginosa to form biofilms was assayed as described by O’Toole et al. with some modifications. Briefly, the tissue culture of 96-well microtiter plates (Sarstedt, Germany) were prepared by dispensing 100 µL of nutrient broth (i.e., Mueller–Hinton broth) into each well. Ten microliters of spore suspension (10^8 colony-forming units (CFU)/mL) was added into each row. […] Biofilms formed by adherent cells in 96-well microtiter plates were stained with crystal violet (0.1% w/v; Fluka AG, Buchs, Switzerland) and incubated at room temperature for 20 min. Excess stain was rinsed off by thorough washing with deionized water and then with […] of 96% ethanol. Optical densities (ODs) of stained adherent bacteria were determined with an enzyme-linked immunosorbent assay (ELISA) plate reader (RT-2100C, Rayto, Shenzhen, China) at a 630 nm wavelength. Only broth served as a control to check sterility and nonspecific binding of media. To compensate for background absorbance, OD readings from sterile medium, fixative, and dye were averaged and subtracted from all test values. All tests were performed in duplicate. The tissue culture of 96-well microtiter plates (Sarstedt, Nümbrecht, Germany) were prepared by dispensing 100 µL of nutrient broth (i.e., Mueller–Hinton broth) into each well. From the stock solution of the tested extracts or components (concentration: 20 mg/mL), 100 µL was added to the first row of the microtiter plate. Two-fold serial dilutions were then made using a multichannel pipette, following which 10 µL of fresh bacterial suspension was added to each well. The inoculated microtiter plates were incubated at 37 °C for 48 h. After incubation, the content of each well was gently removed by tapping the microtiter plates. […] Biofilms formed by adherent cells in 96-well microtiter plates were stained with crystal violet (0.1% w/v; Fluka AG, Switzerland) and incubated at room temperature for 20 min. Excess stain was rinsed off by thorough washing with deionized water and then with […] densities (ODs) of stained adherent bacteria were determined with an enzyme-linked immunosorbent assay (ELISA) plate reader at a 630 nm wavelength. […] Only broth or broth with extracts served as a control to check the sterility and nonspecific binding of media. To compensate for background absorbance, OD readings from sterile medium, extracts, fixative, and dye were averaged and subtracted from all test values. All tests were performed in duplicate.

Test [4] deals with E. coli ATCC 25922. In words: Microdilution with resazurin, antibacterial. The class given is cell-based, Escherichia coli. The protocol:
as §1, §2, §3, §4, §5, §6

The test system of test [5] is E. coli (isolate). In words: Microdilution with resazurin, antibacterial. The class given is cell-based, Escherichia coli. The method, then:
as §1, §2, §3, §4, §5, §6

In test [6] the test system is S. enterica (isolate). The test can be described thus: microbe, parasite or virus in culture. It counts as cell-based, Salmonella enterica. The protocol:
as §1, §2, §3, §4, §5, §6

In test [7] the test system is K. pneumoniae ATCC 70063. The test can be described thus: Microdilution with resazurin, antibacterial. It counts as cell-based, Klebsiella pneumoniae. The protocol:
as §1, §2, §3, §4, §5, §6

The test system of test [8] is K. pneumoniae (isolate). In words: Microdilution with resazurin, antibacterial. It counts as cell-based, Klebsiella pneumoniae. The method, then:
as §1, §2, §3, §4, §5, §6

In test [9] the test system is S. Typhimurium (isolate). The test can be described thus: Microdilution with resazurin, antibacterial. The class given is cell-based, Salmonella Typhimurium. The method, then:
as §1, §2, §3, §4, §5, §6

Test [10] relates to S. aureus ATCC 6538 biofilm. In words: Antibiofilm activity (biofilm formation, crystal violet). The class given is cell-based, Staphylococcus aureus. The conditions noted are these: S. aureus ATCC 6538, 37 °C, 48 h. The method, then:
as §7

Test [11] concerns P. aeruginosa ATCC 27853. The test can be described thus: Microdilution with resazurin, antibacterial. The class given is cell-based, Pseudomonas aeruginosa. The method, then: as §1, §2, §3, §4, §5, §6
Test [12] deals with P. aeruginosa (isolate). The test can be described thus: Microdilution with resazurin, antibacterial. It counts as cell-based, Pseudomonas aeruginosa. The method, then:
as §1, §2, §3, §4, §5, §6

Where [13] appears, read: S. enterica, extracts and usnic acid.

In the case of usnic acid, the MBC in test [1] (extracts and usnic acid) is 625 µg/mL; in test [2] (extracts and usnic acid), 156 µg/mL; in test [4] (extracts and usnic acid), under 10000 µg/mL; in test [5] (extracts and usnic acid), under 10000 µg/mL; in test [6] (setting [13]), under 10000 µg/mL; in test [7] (extracts and usnic acid), under 10000 µg/mL. In addition, the MBC was under 10000 µg/mL in test [8] (extracts and usnic acid); under 10000 µg/mL in test [9] (extracts and usnic acid); under 10000 µg/mL in [11] (extracts and usnic acid); under 10000 µg/mL in test [12] (extracts and usnic acid). In addition, the MIC was 312.5 µg/mL in test [1] (extracts and usnic acid); 156 µg/mL in test [2] (extracts and usnic acid); under 10000 µg/mL in [4] (extracts and usnic acid); under 10000 µg/mL in test [5] (extracts and usnic acid); under 10000 µg/mL in test [6] (setting [13]); under 10000 µg/mL in [7] (extracts and usnic acid). Further, the MIC was under 10000 µg/mL in [8] (extracts and usnic acid); under 10000 µg/mL in test [9] (extracts and usnic acid); 10000 µg/mL in [11] (extracts and usnic acid); 10000 µg/mL in [12] (extracts and usnic acid). Moreover, the figures for the “BIC50 (biofilm inhibitory concentration, 50% reduction of biofilm coverage)” value in test [3], in test [3] (listed as UA) and in test [10] were > 10,000 µg/mL, <10,000 µg/mL and 1750 µg/mL, respectively. For the same compound, the “BIC90 (biofilm inhibitory concentration, 90% reduction of biofilm coverage)” value is > 10,000 µg/mL in [3], <10,000 µg/mL in test [3] (listed as UA) and 5000 µg/mL in test [10].
For the compound `CN(C)[C@@H]1C(O)=C(C(N)=O)C(=O)[C@@]2(O)C(O)=C3C(=O)c4c(O)cccc4[C@@](C)(O)[C@H]3C[C@@H]12` [TC, tetracycline], the MBC was 6 µg/mL (≈ 13.5 µM) in [1] (Staphylococcus aureus, ATCC6538, antibiotics, read-out: MBC); under 0.06 µg/mL in test [2] (Staphylococcus aureus, antibiotics, read-out: MBC); 6 µg/mL (≈ 13.5 µM) in test [4] (Escherichia coli, ATCC25922, antibiotics, read-out: MBC); 6 µg/mL (≈ 13.5 µM) in test [5] (Escherichia coli, antibiotics, read-out: MBC); 2 µg/mL (≈ 4.5 µM) in test [6] (Salmonella enterica); 64 µg/mL (≈ 144 µM) in [7] (Klebsiella pneumoniae, ATCC70063, antibiotics, read-out: MBC). Besides, the MBC in test [8] (Klebsiella pneumoniae, antibiotics, read-out: MBC) is 32 µg/mL (≈ 72 µM); in [9] (Salmonella enterica, antibiotics, read-out: MBC) it was 2 µg/mL (≈ 4.5 µM); in test [11] (Pseudomonas aeruginosa, ATCC27853, antibiotics, read-out: MBC), 32 µg/mL (≈ 72 µM); in test [12] (Pseudomonas aeruginosa, antibiotics, read-out: MBC), over 128 µg/mL. For the same compound, the MIC is 3 µg/mL (≈ 6.75 µM) in [1] (Staphylococcus aureus, ATCC6538, antibiotics, read-out: MIC); under 0.06 µg/mL in [2] (Staphylococcus aureus, antibiotics, read-out: MIC); 4 µg/mL (≈ 9 µM) in test [4] (Escherichia coli, ATCC25922, antibiotics, read-out: MIC); 2 µg/mL (≈ 4.5 µM) in test [5] (Escherichia coli, antibiotics, read-out: MIC); 4 µg/mL (≈ 9 µM) in test [7] (Klebsiella pneumoniae, ATCC70063, antibiotics, read-out: MIC); 4 µg/mL (≈ 9 µM) in test [8] (Klebsiella pneumoniae, antibiotics, read-out: MIC). In addition, the MIC was 4 µg/mL (≈ 9 µM) in test [11] (Pseudomonas aeruginosa, ATCC27853, antibiotics, read-out: MIC) and over 128 µg/mL in test [12] (Pseudomonas aeruginosa, antibiotics, read-out: MIC). The “BIC90 (biofilm inhibitory concentration, 90% reduction of biofilm coverage)” value in test [3] and in [10] was over 1000 µg/mL in each case. Moreover, the IC50 is over 1000 µg/mL in test [3] (Pseudomonas aeruginosa, read-out: BIC50 (biofilm inhibitory concentration, 50% reduction of biofilm coverage)) and 249 µg/mL (≈ 560 µM) in test [10] (Staphylococcus aureus, ATCC6538, read-out: BIC50 (biofilm inhibitory concentration, 50% reduction of biofilm coverage)).
